Key:
Assay in all cases: Mass spectroscopy proteomics, semi-quantitative binding affinity of serum proteins (plaqueproteome, Table 2)
Details in all cases: higher number = stronger affinity
[1] = system: Tau plaque particles; parameters: species or system human
Protocol: For Tau-74 (74-102) (Exon 3/Insert 2 domain) preparation, 1 mg of Tau-74 was suspended in 1 mL of PBS and the sample was incubated at 37° C. for 2 hrs. Similarly for preparing Tau-275 (275-305) (Repeat 2 domain) 1 mg of the peptide was suspended in 1 mL of PBS and the sample was incubated at 37° C. for 2 hrs. After incubation, all the samples were centrifuged for 5 min. at 5000 rpm to remove precipitate, if any, and the supernatant containing oligomers/aggregates were used for in vitro amyloid plaque particles formation assay. For detecting Tau plaque particles, Thioflavin S (Ex/Em=430 nm/550 nm) amyloid binding fluorescent dye (10 μg) was used in the assay.
Next, to isolate Tau plaque particles, as performed for Abeta-42 and Abeta-28 plaque particles isolation, diluted serum samples were used for incubation separately with Tau-45, Tau-74 and Tau-275 oligomers/aggregates. Each assay was performed in 1 mL reaction (800 μL of 50% plasma or serum) and 200 μL (30 μg) of each Tau aggregates and the mixtures were incubated at 37° C. for 1 hr. To the each mixture Thioflavin S dye (120 μg) was added and the sample was incubated for additional 30 min at 37° C. After the incubation, each sample was directly used for sample acquisition using flow cytometer (FACS ARIA II, BD Biosciences, San Jose, Calif.). After initial detection of Tau plaque particles, gates were drawn in the acquisition blot to separately sort and isolate fluorescently labeled Tau plaque particles.
(§1) For preparing trypsin digested peptide sequences, the isolated plaque particles were centrifuged at 10000 rpm for 5 min and the pellet containing plaque particles was resuspended in 100 μl PBS buffer. Stock solutions of digestion buffer (Ammonium Biocarbonate 50 mM), reducing buffer (DDT 100 mM) and alkylation buffer (lodoaceamide 100 mM) were prepared and stored at −20° C. for up to two months. For trypsin digestion, 100 μl of each plaque particles (2000 of Abeta-42, cholesterol, Tau and alpha-synuclein) were precipitated using cold acetone −80° C. by adding 4X's the volume. The samples were placed on dry ice for 10 min with intermittent vortex. Next, the samples were centrifuged at 4° C. at 10000 G for 10 min. Top layer of acetone was carefully removed from the tube with care not to disturb the plaque particles pellet. The samples were speed-vac for 10 min to ensure all acetone has been boiled away. The plaque particles pellet were reconstituted with 15 μl 8M Urea 100 mM Ammonium bicarbonate stock and 20 μl protease max solution. The protease max solution (Promega, Madison, Wis.) was prepared from stock by adding 60 μl 50 mM Ammonium bicarbonate and used for 3 solution digests (20 μl each). […] The tubes were incubated at 55° C. for 30 minutes. The tubes were then removed and brought to the room temperature followed by addition of 3.2 μl of 1M acrylamide and incubated at room temperature for 30 minutes. To the sample, 63 μL of 50 mM Ammonium bicarbonate was added for a final volume of 98 μl and 2 μl of trypsin (10 μg, Trypsin/Lys C Mix). After mixing the solution with pipet the samples were incubated at 37° C. overnight. After the overnight digest, the tryptic digest were quenched and acidified by adding 10 μl of 50% formic acid/water stock dilution. The samples were centrifuged at 10000 G for 2 minutes and purified using stage tip and used for MS/Mass analysis.
(§2) All MS/MS samples were analyzed using Sequest (Thermo Fisher Scientific, San Jose, Calif., USA; version 1.0). Sequest was set up to search the SUMS_uniprot_Human database (35847 entries) assuming the digestion enzyme strict trypsin. Sequest was searched with a fragment ion mass tolerance of 1.00 Da and a parent ion tolerance of 20 PPM. Propionamide of cysteine was specified in Sequest as a fixed modification. Oxidation of methionine and phospho of serine, threonine and tyrosine were specified in Sequest as variable modifications.

[2] = system: High Density cholesterol (Chl Large) plaque particles; parameters: species or system human
Protocol: (§3) The goal was to isolate plaque particles synthesized in the bio-fluids in a relatively pure form to enable their subsequent use for identification of components that contribute to the plaque formation. In order to isolate cholesterol plaque particles, the plasma or serum samples obtained from atherosclerotic subjects were first centrifuged at 5,000 rpm for 5 min and the supernatants were transferred to new centrifuge tubes. Next, the supernatants were diluted in PBS to make 50% of the serum and used for incubation with cholesterol oligomers/aggregates. Each assay was performed in 1 mL reaction (800 μL of 50% plasma or serum) and 200 μL (30 μg) of the Cholesterol aggregates and the mixtures were incubated at 37° C. for 1 hr After the incubation, the mixture was directly used for sample acquisition using flow cytometer (FACS ARIA II, BD Biosciences, San Jose, Calif.). […] In order to isolate these fractions, three sets of gates were drawn in the acquisition blot to separately sort and isolate High density or high complex cholesterol particles, Low density or low complex cholesterol particles and both High and low density cholesterol particles together.
as §1, §2
(§4) Scaffold (version Scaffold_4.2.1, Proteome Software Inc., Portland, Oreg.) was used to validate MS/MS based peptide and protein identifications. […] Protein probabilities were assigned by the Protein Prophet algorithm (Nesvizhskii, Al et al 2003).

[3] = system: Low density cholesterol (Chl small) plaque particles; parameters: species or system human
Protocol: as §3, §1, §2, §4

[4] = biological target: T1, Abeta-42 plaque particles (Homo sapiens, UniProt P05067)
T1 construct: Abeta 1-42
Protocol: Next to isolate serum derived Abeta-42 plaque particles, the plasma or serum samples obtained from AD subjects were first centrifuged at 5,000 rpm for 5 min and the supernatants were transferred to new centrifuge tubes. Next, the supernatants were diluted in PBS to make 50% of the serum and plasma samples and used for incubation with Abeta-42 plaque oligomers/aggregates. Each assay was performed in 1 mL reaction (800 μL of 50% plasma or serum) and 200 μL (30 μg) of the Abeta-42 aggregates and the mixtures were incubated at 37° C. for 1 hr. To the mixture Thioflavin S dye (120 μg) was added and the sample was incubated for additional 30 min at 37° C. After the incubation, the mixture was directly used for sample acquisition using flow cytometer (FACS ARIA II, BD Biosciences, San Jose, Calif.). After initial detection of Abeta-42 plaque particles in the acquisition blot, gates were drawn in fluorescent dot blot to separately sort and isolate fluorescently labeled Abeta-42 particles.
as §1, §2
as §4, with “2003). […] Proteins sharing significant peptide evidence were grouped into clusters. Proteins were annotated with GO terms from NCBI (downloaded Jan. 17, 2014).” for “2003).”

[5] = biological target: T2, alpha-synuclein plaque particles (Homo sapiens, UniProt P37840)
T2 construct: 140 amino acids polypeptide
Protocol: To prepare oligomers/aggregates of human alpha-synuclein (140 amino acids polypeptide), 1 mg of the recombinant alpha-synuclein protein was suspended in 1 mL of PBS and the sample was incubated at 37° C. for 2 hrs. After incubation, all the samples were centrifuged for 5 min. at 5000 rpm to remove precipitate, if any, and the supernatant containing oligomers/aggregates were used in vitro plaque particles formation assay. For detecting alpha-synuclein plaque particles Thioflavin S (Ex/Em=430 nm/550 nm) amyloid binding fluorescent dye (10 μg) was used.
Similarly, to isolate alpha-synuclein plaque particles, diluted plasma or serum samples obtained from AD subjects were used for incubation with alpha-synuclein plaque oligomers/aggregates. Each assay was performed in 1 mL reaction (800 μL of 50% plasma or serum) and 200 μL (30 μg) of the alpha-synuclein aggregates and the mixtures were incubated at 37° C. for 1 hr. To the mixture Thioflavin S dye (120 μg) was added and the sample was incubated for additional 30 min at 37° C. After the incubation, the mixture was directly used for sample acquisition using flow cytometer (FACS ARIA II, BD Biosciences, San Jose, Calif.). After initial detection of alpha-synuclein plaque particles, gates were drawn in the acquisition blot to separately sort and isolate fluorescently labeled alpha-synuclein particles.
as §1, §2
Scaffold (version Scaffold_4.2.1, Proteome Software Inc., Portland, Oreg.) was used to validate MS/MS based peptide and protein identifications.

Row | Substance | Semi-quantitative analysis of proteins binding to different plaque particles: Tau [1] | Semi-quantitative analysis of proteins binding to different plaque particles: Chl Large [2] | Semi-quantitative analysis of proteins binding to different plaque particles: Chl small [3] | Semi-quantitative analysis of proteins binding to different plaque particles: Abeta-42 [4] | Semi-quantitative analysis of proteins binding to different plaque particles: Synuclein [5]
1 | Complement C1q subcomponent subunit B | 2 | 1 | 0 | 0 | 2
2 | Complement C1q subcomponent subunit C | 2 | 1 | 1 | 0 | 1
3 | Complement C1s subcomponent | 2 | 3 | 1 | 0 | 1
4 | Complement C3 | 85 | 73 | 67 | 63 | 71
5 | Complement C4-A | 50 | 44 | 36 | 28 | 37
6 | Complement C4-B | 52 | 44 | 35 | 32 | 37
7 | Complement C5 | 1 | 5 | 3 | 0 | 4
8 | Complement component C6 | 1 | 1 | 1 | 0 | 3
9 | Complement component C7 | 4 | 4 | 6 | 0 | 1
10 | Complement component C8 alpha chain | 0 | 3 | 2 | 0 | 0
11 | Complement component C8 beta chain | 2 | 1 | 2 | 0 | 0
12 | Complement component C8 gamma chain | 2 | 0 | 1 | 0 | 2

From US9618524B2, “Method, composition, isolation and identification of a plaque particle and related biomarker” (Plaxgen Inc., priority 2012, dated 2017)
